Data taken from US11999727B2 (Tango Therapeutics, Inc., priority 2020, dated 2024).
pIC50: −log10 of the molar value. Like-named read-outs stand apart in the source and are kept apart here.

Experiments:
PRMT5 [1] = target: T1, PRMT5 (Homo sapiens, UniProt O14744); experiment: PRMT5 biochemical IC50 assay with SAM as cofactor
T1 construct: purchased Viva (custom protein)

PRMT5 [2] = target: T1, PRMT5; experiment: PRMT5 biochemical IC50 assay with no cofactor
Excerpt: Table 1 indicates IC50 values (μM) against PRMT5 for exemplary compounds in the presence of SAM as cofactor, with no cofactor, and with MTA as cofactor, respectively (columns 4-6). […] Ki values can be calculated from the IC50 values as described in the Examples section. As detailed in the Examples section, for the assay performed in the presence of SAM, IC50=Ki×1.5 (Ki=IC50/1.5).

PRMT5 [3] = target: T1, PRMT5; experiment: PRMT5 biochemical IC50 assay with MTA as cofactor
[4] = system: HAP1 MTAP-intact cell line; experiment: SDMA in-cell western assay, HAP1 MTAP-intact; assay type: cell-based; settings: Homo sapiens
Summary of the method: (§1)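 Isogenic HAP1 pair: the MTAP-intact line expresses endogenous MTAP, and the deleted line is MTAP-null. Symmetric dimethylarginine was detected by in-cell western and IC50 values derived for each line.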

[5] = system: HAP1 MTAP-deleted cell line; experiment: SDMA in-cell western assay, HAP1 MTAP-deleted; assay type: cell-based; settings: for pIC50: Homo sapiens; for MTAP intact/deleted ratio: IC50 ratio HAP1 MTAP-intact vs HAP1 MTAP-deleted, SDMA in-cell western
Summary of the method: as §1

[6] = system: HAP1 MTAP-deleted cell line; experiment: Viability assay, MTAP-deleted cell line; assay type: cell-based; settings: Homo sapiens
Excerpt: Table 1 additionally indicates IC50 values in a viability assay for the MTAP-deleted cell line (column 10), indicating the effect of treatment with compound on cell survival.

[7] = PRMT5, SAM as cofactor, read-out: SAM IC50
[8] = PRMT5, no cofactor, read-out: No Cofactor/rel IC50
[9] = PRMT5, MTA as cofactor, read-out: MTA IC50
[10] = HAP1, SDMA in-cell western, HAP1 MTAP-intact, read-out: MTAP HAP1 intact IC50
[11] = HAP1, SDMA in-cell western, HAP1 MTAP-deleted, read-out: HAP1 MTAP deleted IC50
[12] = HAP1, viability assay, MTAP-deleted cell line, read-out: HAP1 MTAP deleted viability

T1 sequence (O14744 whole entry): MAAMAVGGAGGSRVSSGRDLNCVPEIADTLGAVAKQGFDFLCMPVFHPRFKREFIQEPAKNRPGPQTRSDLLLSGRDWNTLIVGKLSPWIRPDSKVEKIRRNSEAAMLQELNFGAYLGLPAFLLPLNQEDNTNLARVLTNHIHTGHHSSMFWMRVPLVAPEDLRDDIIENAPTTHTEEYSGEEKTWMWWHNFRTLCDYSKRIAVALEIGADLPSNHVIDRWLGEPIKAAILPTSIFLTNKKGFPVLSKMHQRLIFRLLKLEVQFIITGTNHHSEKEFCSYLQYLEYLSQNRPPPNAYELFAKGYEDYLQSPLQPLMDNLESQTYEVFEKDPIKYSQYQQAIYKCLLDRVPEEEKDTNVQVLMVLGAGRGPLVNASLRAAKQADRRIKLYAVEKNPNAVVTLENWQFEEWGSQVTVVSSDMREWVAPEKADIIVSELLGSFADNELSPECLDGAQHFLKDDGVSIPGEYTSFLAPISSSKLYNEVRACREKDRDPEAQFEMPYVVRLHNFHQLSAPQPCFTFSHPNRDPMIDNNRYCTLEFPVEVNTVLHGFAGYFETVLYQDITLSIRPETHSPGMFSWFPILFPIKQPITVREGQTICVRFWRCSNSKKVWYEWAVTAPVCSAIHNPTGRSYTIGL
T1 sequence (Q9BQA1 whole entry partner): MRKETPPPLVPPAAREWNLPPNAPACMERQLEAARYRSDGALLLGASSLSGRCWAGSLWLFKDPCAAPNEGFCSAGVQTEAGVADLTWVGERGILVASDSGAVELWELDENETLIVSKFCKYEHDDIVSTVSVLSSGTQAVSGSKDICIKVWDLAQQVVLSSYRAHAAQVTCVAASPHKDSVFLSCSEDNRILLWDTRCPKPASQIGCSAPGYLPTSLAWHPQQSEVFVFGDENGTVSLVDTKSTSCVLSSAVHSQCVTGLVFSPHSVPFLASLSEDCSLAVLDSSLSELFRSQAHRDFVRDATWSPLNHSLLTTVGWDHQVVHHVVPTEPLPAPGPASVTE

Compound	pIC50 (PRMT5 [1]; [7])	pIC50 (PRMT5 [2]; [8])	pIC50 (PRMT5 [3]; [9])	pIC50 [4, 10]	pIC50 [5, 11]	MTAP intact/deleted ratio [5]	pIC50 [6, 12]	pIC50 (PRMT5 [1]; SAM IC50, PRMT5, SAM as cofactor)	pIC50 (PRMT5 [2]; No Cofactor/rel IC50, PRMT5, no cofactor)	pIC50 (PRMT5 [3]; MTA IC50, PRMT5, MTA as cofactor)	pIC50 ([4]; HAP1, read-out: MTAP HAP1 intact IC50)	pIC50 ([5]; HAP1, read-out: HAP1 MTAP deleted IC50)	pIC50 ([6]; HAP1, read-out: HAP1 MTAP deleted viability)
CCc1cc(NC(=O)C(=O)N2C[C@@H](C)CC[C@@H]2c2ccc3sc([C@@H]4C[C@H]5CN(C)C[C@H]54)nc3c2)cnc1N [Compound 1147, N-(6-amino-5-ethylpyridin-3-yl)-2-((5S)-5-methyl-2-(2-(3-methyl-3-azabicyclo[3.2.0]heptan-6-yl)benzo[d]thiazol-5-yl)piperidin-1-yl)-2-oxoacetamide]	> 7.30	> 7.30	> 7.30	> 7.00	> 7.00	A (an IC50 ratio greater than or equal to 10 fold)	> 6.00						
CCc1cc(NC(=O)C(=O)N2C[C@@H](C)CC[C@@H]2c2ccc3sc(C4CN(C)C4)nc3c2)cnc1N [Compound 1151, N-(6-amino-5-ethylpyridin-3-yl)-2-((2R,5S)-5-methyl-2-(2-(1-methylazetidin-3-yl)benzo[d]thiazol-5-yl)piperidin-1-yl)-2-oxoacetamide]	> 7.30	> 7.30	> 7.30	> 7.00	> 7.00	A (an IC50 ratio greater than or equal to 10 fold)	> 6.00						
CCc1cc(NC(=O)C(=O)N2C[C@@H](C)CC[C@@H]2c2ccc3sc(CO)nc3c2)cnc1N [Compound 1152, N-(6-amino-5-ethylpyridin-3-yl)-2-((2R,5S)-2-(2-(hydroxymethyl)benzo[d]thiazol-5-yl)-5-methylpiperidin-1-yl)-2-oxoacetamide]	6.30 to 7.30	> 7.30	> 7.30	6.00 to 7.00	> 7.00	A (an IC50 ratio greater than or equal to 10 fold)	> 6.00						
COc1ncc(NC(=O)C(=O)N2C[C@@H](C)CC[C@@H]2c2ccc3sc(C4(CN(C)C)COC4)nc3c2)cc1C(N)=O [Compound 1155, 5-(2-((2R,5S)-2-(2-(3-((dimethylamino)methyl)oxetan-3-yl)benzo[d]thiazol-5-yl)-5-methylpiperidin-1-yl)-2-oxoacetamido)-2-methoxynicotinamide]	> 7.30	> 7.30	> 7.30	6.00 to 7.00	> 7.00	A (an IC50 ratio greater than or equal to 10 fold)	> 6.00						
COc1ncc(NC(=O)C(=O)N2C[C@@H](C)CC[C@@H]2c2ccc3sc(CN(C)C)nc3c2)cc1C(N)=O [Compound 1162, 5-(2-((2R,5S)-2-(2-((dimethylamino)methyl)benzo[d]thiazol-5-yl)-5-methylpiperidin-1-yl)-2-oxoacetamido)-2-methoxynicotinamide]	6.30 to 7.30	> 7.30	> 7.30	6.00 to 7.00	> 7.00	A (an IC50 ratio greater than or equal to 10 fold)	> 6.00						
CCc1cc(NC(=O)C(=O)N2C[C@@H](C)CC[C@@H]2c2ccc3sc(C4(C)CCN(C)CC4)nc3c2)cnc1N [Compound 1171, N-(6-amino-5-ethylpyridin-3-yl)-2-((2R,5S)-2-(2-(1,4-dimethylpiperidin-4-yl)benzo[d]thiazol-5-yl)-5-methylpiperidin-1-yl)-2-oxoacetamide]						A (an IC50 ratio greater than or equal to 10 fold)		> 7.30	> 7.30	> 7.30	> 7.00	> 7.00	> 6.00
CCc1cc(NC(=O)C(=O)N2C[C@@H](C)CC[C@@H]2c2ccc3sc(C4CCN(CCF)CC4)nc3c2)cnc1N [Compound 1174, N-(6-amino-5-ethylpyridin-3-yl)-2-((2R,5S)-2-(2-(1-(2-fluoroethyl)piperidin-4-yl)benzo[d]thiazol-5-yl)-5-methylpiperidin-1-yl)-2-oxoacetamide]	> 7.30	> 7.30	> 7.30	> 7.00	> 7.00	A (an IC50 ratio greater than or equal to 10 fold)	> 6.00						
CCc1cc(NC(=O)C(=O)N2C[C@@H](C)CC[C@@H]2c2cccc(OC[C@@H]3CCN(C)C3)c2)cnc1N [Compound 1178, N-(6-amino-5-ethylpyridin-3-yl)-2-((2R,5S)-5-methyl-2-(3-(((R)-1-methylpyrrolidin-3-yl)methoxy)phenyl)piperidin-1-yl)-2-oxoacetamide]	> 7.30	> 7.30	> 7.30	> 7.00	> 7.00	A (an IC50 ratio greater than or equal to 10 fold)	> 6.00						

The next lines start with results.

pIC50 (PRMT5 [1]; [7])	pIC50 (PRMT5 [2]; [8])	pIC50 (PRMT5 [3]; [9])	pIC50 [4, 10]	pIC50 [5, 11]	Compound	MTAP intact/deleted ratio [5]	pIC50 [6, 12]	pIC50 (PRMT5 [1]; SAM IC50, PRMT5, SAM as cofactor)	pIC50 (PRMT5 [2]; No Cofactor/rel IC50, PRMT5, no cofactor)	pIC50 (PRMT5 [3]; MTA IC50, PRMT5, MTA as cofactor)	pIC50 ([4]; HAP1, read-out: MTAP HAP1 intact IC50)	pIC50 ([5]; HAP1, read-out: HAP1 MTAP deleted IC50)	pIC50 ([6]; HAP1, read-out: HAP1 MTAP deleted viability)
> 7.30	> 7.30	> 7.30	> 7.00	> 7.00	Cc1cc(NC(=O)C(=O)N2C[C@@H](C)CC[C@@H]2c2ccc3sc(C4CCN(C)CC4)nc3c2)cnc1C [Compound 1137, N-(5,6-dimethylpyridin-3-yl)-2-((2R,5S)-5-methyl-2-(2-(1-methylpiperidin-4-yl)benzo[d]thiazol-5-yl)piperidin-1-yl)-2-oxoacetamide]	A (an IC50 ratio greater than or equal to 10 fold)	> 6.00						
> 7.30	> 7.30	> 7.30	> 7.00	> 7.00	CCc1cc(NC(=O)C(=O)N2C[C@@H](C)CC[C@@H]2c2ccc3sc(C4(F)CCN(C)CC4)nc3c2)cnc1N [Compound 1160, N-(6-amino-5-ethylpyridin-3-yl)-2-((2R,5S)-2-(2-(4-fluoro-1-methylpiperidin-4-yl)benzo[d]thiazol-5-yl)-5-methylpiperidin-1-yl)-2-oxoacetamide]	A (an IC50 ratio greater than or equal to 10 fold)	> 6.00						
> 7.30	> 7.30	> 7.30	6.00 to 7.00	> 7.00	CCN1CCC(c2nc3cc([C@H]4CC[C@H](C)CN4C(=O)C(=O)Nc4cnc(OC)c(C(N)=O)c4)ccc3s2)CC1 [Compound 1164, 5-(2-((2R,5)-2-(2-(1-ethylpiperidin-4-yl)benzo[d]thiazol-5-yl)-5-methylpiperidin-1-yl)-2-oxoacetamido)-2-methoxynicotinamide]	A (an IC50 ratio greater than or equal to 10 fold)	> 6.00						
6.30 to 7.30	> 7.30	> 7.30	> 7.00	> 7.00	CCc1cc(NC(=O)C(=O)N2C[C@@H](C)CC[C@@H]2c2ccc3sc(C4(CN(C)C)COC4)nc3c2)cnc1N [Compound 1165, N-(6-amino-5-ethylpyridin-3-yl)-2-((2R,5S)-2-(2-(3-((dimethylamino)methyl)oxetan-3-yl)benzo[d]thiazol-5-yl)-5-methylpiperidin-1-yl)-2-oxoacetamide]	B (an IC50 ratio greater than or equal to 3 fold but lower than 10 fold)	> 6.00						
> 7.30	> 7.30	> 7.30	6.00 to 7.00	> 7.00	CCc1cc(NC(=O)C(=O)N2C[C@@H](C)CC[C@@H]2c2cccc(OCCN(C)C)c2)cnc1N [Compound 1175, N-(6-amino-5-ethylpyridin-3-yl)-2-((2R,5S)-2-(3-(2-(dimethylamino)ethoxy)phenyl)-5-methylpiperidin-1-yl)-2-oxoacetamide]	A (an IC50 ratio greater than or equal to 10 fold)	> 6.00						
> 7.30	> 7.30	> 7.30	> 7.00	> 7.00	CCc1cc(NC(=O)C(=O)N2C[C@@H](C)CC[C@@H]2c2cccc(OC[C@H]3CCN(C)C3)c2)cnc1N [Compound 1179, N-(6-amino-5-ethylpyridin-3-yl)-2-((2R,5S)-5-methyl-2-(3-(((S)-1-methylpyrrolidin-3-yl)methoxy)phenyl)piperidin-1-yl)-2-oxoacetamide]	A (an IC50 ratio greater than or equal to 10 fold)	> 6.00						
> 7.30	> 7.30	> 7.30	> 7.00	> 7.00	Cc1cc(NC(=O)C(=O)N2C[C@@H](C)CC[C@@H]2c2ccc3sc(C4CCN(C5CC5)CC4)nc3c2)cnc1N [Compound 1181, N-(6-amino-5-methylpyridin-3-yl)-2-((2R,5S)-2-(2-(1-cyclopropylpiperidin-4-yl)benzo[d]thiazol-5-yl)-5-methylpiperidin-1-yl)-2-oxoacetamide]	B (an IC50 ratio greater than or equal to 3 fold but lower than 10 fold)	> 6.00						
